Assay results taken from patent US20220175766A1, “COMPOSITIONS AND METHODS OF TREATMENT” (GB004, Inc., priority 2019, published 2022).
Where two headings read alike, the source gives them in different places.

How the values were obtained:
pKa of Compound 1 = format: physicochemical; conditions: two basic groups
Excerpt: The pKa value expresses the strength of acids and base, i.e. the tendency for an acid to lose a proton or a base to accept a proton (Bronsted J. N. Rec. trav. Chim. (47), 718, 1923) and the protonation and deprotonation of the basic groups in the compound has a marked effect upon the solubility of Compound 1 in aqueous media. Consequently, the solubility of Compound 1 is highly dependent upon pH.

[1] = Biopharmaceutical Classification System (BCS) classification; format: physicochemical; conditions: low solubility/dissolution rate and high permeability
Excerpt: Compound 1 can be classified as a BCS Class 2 compound (according to the Biopharmaceutical Classification System as defined by the “Guidance for Industry: Waiver of In Vivo Bioavailability and Bioequivalence studies for immediate release solid oral dosage forms based on a Biopharmaceutics Classification System”) which indicates it has a low solubility/dissolution rate and high permeability.

[2] = Phase 1a single ascending dose study (oral solution): plasma pharmacokinetics; format: in vivo; conditions: male, human; for AUC(0-t): read-out: AUClast, mean (SD); for Cmax: read-out: Cmax, mean (SD)
Procedure: Compound 1 was administered as the HCl-salt (prepared analogously to Example 2.1).
Placebo dosing solutions were identical to active, except without Compound 1. […] Since HPβCD concentration remained constant, subjects in Cohort 5 received twice the amount of HPβCD relative to subjects in Cohorts 1 to 4. Dosing, including consumption of rinse water, was completed within 3 minutes, administered in the morning after an overnight fast, and maintained for up to 4 hours after dosing.
The secondary objective was to characterize the single-dose pharmacokinetic (PK) parameters of Compound 1 after ascending doses.
Blood samples were collected at baseline, day 1 (0.5, 1, 2, 3, 4, 6, 8, 12, 16, 24 hours post dose), day 2 (30, 36 and 48 hours post dose) and day 8 follow-up visit. Analysis of plasma samples was performed using a validated Liquid Chromatography—Mass Spectrometry and Liquid Chromatography—Tandem Mass Spectrometry (LC-MS/MS) method.

[3] = Phase 1a single ascending dose study (oral solution): safety and tolerability; format: in vivo, human; conditions: all doses evaluated (20-240 mg) in 50 mL or 100 mL vehicle
Excerpt: The primary objective of the study was to assess the safety and tolerability of ascending dose levels of Compound 1 after single oral dose administration. The safety endpoints included AE incidence, clinically significant changes in vital signs, ECG parameters, clinical laboratory tests and physical examination.
All subjects underwent a complete physical examination and their medical history and demographic information collected. The body systems evaluated included general appearance, skin, lymphatic, head and neck, EENT (eyes, ears, nose, and throat), chest and lungs, cardiovascular, abdomen, extremities, musculoskeletal and neuromuscular. Vital signs were measured. Blood pressure, pulse, respiratory rate and oral temperature; were taken. Blood and urine samples were collected at screening, pre-baseline, baseline, during the treatment period, and Day 8 follow-up visit; the following clinical laboratory evaluations were conducted. […]

[4] = Phase 1a multiple ascending dose study: Compound 1 in fecal samples; format: in vivo, human; conditions: for dose excreted: human, feces, oral, read-out: Mean recovery of Compound 1 in feces, range across cohorts
Procedure: Fecal samples were collected, when possible, over 24 hours (0-24 hours) post administration on Day 1 and Day 7; the absolute amount of Compound 1 measured (mg) is shown Table 48.

[5] = tested on: hypoxia inducible factor (HIF)-inducible gene expression; assay: Phase 1a multiple ascending dose study: HIF-inducible gene expression in colonic mucosal biopsy samples; format: in vivo, human
Procedure: Colonic mucosal biopsy samples were also assessed for hypoxia inducible factor (HIF)-inducible gene expression. For Tier 1 association tests, two significant gene were detected (HMOX1, CA9).

HIF-1α = assay: Phase 1a multiple ascending dose study: proportion of HIF-1α positive cells in colonic biopsies (immunohistochemistry, manual assessment); format: in vivo, human; conditions: for Proportion of HIF-1α Positive Cells, CFB (change from baseline), Mean / Proportion of HIF-1α Positive Cells, CFB (change from baseline), Median: baseline to Day 8
Procedure: Manual assessment of the proportion of HIF-1α positive cells was conducted in 10 regions of interest, selected in whole tissue sections. (Note, the study was amended to add this immunohistochemistry analysis; thus data is only available for cohorts 4 and 5 (120 mg and 60 mg), cohorts 1-3 lacked this type of biopsy).
Table 50 presents the proportions of HIF-1α positive cells evaluated at baseline and Day 8, and the change from baseline to Day 8 of the proportion of HIF-1α positive cells. The mean proportion of HIF-1α positive cells ranged from 1% to 80% across all experimental groups.

EPO and VEGF = assay: Phase 1a multiple ascending dose study: circulating EPO and VEGF levels in serum; format: in vivo, human; conditions: serum samples
[6] = 20 mg, Cohort 1, 20 mg single oral dose (0.4 mg/mL, 50 mL)
[7] = 60 mg, Cohort 2, 60 mg single oral dose (1.2 mg/mL, 50 mL)
[8] = 120 mg, Cohort 3, 120 mg single oral dose (2.4 mg/mL, 50 mL)
[9] = 240 mg, Cohort 4, 240 mg single oral dose (4.8 mg/mL, 50 mL)
[10] = 240 mg, Cohort 5, 240 mg single oral dose (2.4 mg/mL, 100 mL)
[11] = Pooled (60 mg and 120 mg), Baseline
[12] = Pooled (60 mg and 120 mg), Day 8

Structure (SMILES): CC(C)(C)OC(=O)N1CCN(Cc2ccn(Cc3ccc(Cl)cc3)c(=O)c2O)CC1 [Compound 1, tert-butyl 4-((1-(4-chlorobenzyl)-3-hydroxy-2-oxo-1,2-dihydropyridin-4-yl)methyl)piperazine-1-carboxylate]
- pKa (pKa of Compound 1): 6.5
- BCS classification [1]: BCS Class 2
- Tmax [2, 6]: 30 min
- AUC(0-t) [2, 6]: 10.7 ng·h/mL
- Cmax [2, 6]: 2.06 ng/mL
- Tmax [2, 7]: 30 min
- AUC(0-t) [2, 7]: 14.2 ng·h/mL
- Cmax [2, 7]: 7.71 ng/mL
- Tmax [2, 8]: 30 min
- AUC(0-t) [2, 8]: 32.3 ng·h/mL
- Cmax [2, 8]: 12.4 ng/mL
- Tmax [2, 9]: 30 min
- AUC(0-t) [2, 9]: 41.3 ng·h/mL
- Cmax [2, 9]: 25 ng/mL
- Tmax [2, 10]: 30 min
- AUC(0-t) [2, 10]: 79.5 ng·h/mL
- Cmax [2, 10]: 30.7 ng/mL
- Tmax ([2]; single oral solution dose, healthy male subjects): < 60 min
- Tmax ([2]; single oral solution formulation dose): 30 min
- Safety and tolerability [3]: safe and well tolerated
- Mean observed amount of Compound 1 in fecal samples ([4]; Cohort 1, 60 mg once daily, DAY 7, 0-24 hours): 22.0 mg
- Mean observed amount of Compound 1 in fecal samples ([4]; Cohort 1, 60 mg, DAY 1, 0-24 hours): 11.8 mg
- Mean observed amount of Compound 1 in fecal samples ([4]; Cohort 2, 120 mg once daily, DAY 7, 0-24 hours): 37.5 mg
- Mean observed amount of Compound 1 in fecal samples ([4]; Cohort 2, 120 mg, DAY 1, 0-24 hours): 5.9 mg
- Mean observed amount of Compound 1 in fecal samples ([4]; Cohort 3, 240 mg once daily, DAY 7, 0-24 hours): 125.3 mg
- Mean observed amount of Compound 1 in fecal samples ([4]; Cohort 3, 240 mg, DAY 1, 0-24 hours): 46.5 mg
- Mean observed amount of Compound 1 in fecal samples ([4]; Cohort 4, 120 mg once daily, DAY 7, 0-24 hours): 33.9 mg
- Mean observed amount of Compound 1 in fecal samples ([4]; Cohort 4, 120 mg, DAY 1, 0-24 hours): 14.4 mg
- Mean observed amount of Compound 1 in fecal samples ([4]; Cohort 5, 60 mg once daily, DAY 7, 0-24 hours): 11.6 mg
- Mean observed amount of Compound 1 in fecal samples ([4]; Cohort 5, 60 mg, DAY 1, 0-24 hours): 13.0 mg
- Mean fecal concentrations of Compound 1, range across cohorts ([4]; Day 1): 40 to 225 µg/g
- Mean fecal concentrations of Compound 1, range across cohorts ([4]; Day 7): 95 to 506 µg/g
- dose excreted ([4]; Day 1): 5 to 22%
- dose excreted ([4]; Day 7): 19 to 52%
- Significant genes detected ([5]; Tier 1 association tests): HMOX1, CA9
- Significant genes detected ([5]; Tier 2 analysis): NDRG1, LCN2, BNIP3, TFF3, AKR1C3, BIRC3, TMEM45A and HILPDA
- Proportion of HIF-1α Positive Cells, Mean (HIF-1α; 60 mg, Baseline): 6.3%
- Proportion of HIF-1α Positive Cells, Median (HIF-1α; 60 mg, Baseline): 5.8%
- Proportion of HIF-1α Positive Cells, Mean (HIF-1α; 60 mg, Day 8): 44.5%
- Proportion of HIF-1α Positive Cells, Median (HIF-1α; 60 mg, Day 8): 46.5%
- Proportion of HIF-1α Positive Cells, CFB (change from baseline), Mean (HIF-1α; 60 mg): 38.3%
- Proportion of HIF-1α Positive Cells, CFB (change from baseline), Median (HIF-1α; 60 mg): 38.0%
- Proportion of HIF-1α Positive Cells, Mean (HIF-1α; 120 mg, Baseline): 12.0%
- Proportion of HIF-1α Positive Cells, Median (HIF-1α; 120 mg, Baseline): 6.3%
- Proportion of HIF-1α Positive Cells, Mean (HIF-1α; 120 mg, Day 8): 44.1%
- Proportion of HIF-1α Positive Cells, Median (HIF-1α; 120 mg, Day 8): 45.3%
- Proportion of HIF-1α Positive Cells, CFB (change from baseline), Mean (HIF-1α; 120 mg): 32.1%
- Proportion of HIF-1α Positive Cells, CFB (change from baseline), Median (HIF-1α; 120 mg): 28.5%
- Proportion of HIF-1α Positive Cells, Mean (HIF-1α; [11]): 9.1%
- Proportion of HIF-1α Positive Cells, Median (HIF-1α; [11]): 5.8%
- Proportion of HIF-1α Positive Cells, Mean (HIF-1α; [12]): 44.3%
- Proportion of HIF-1α Positive Cells, Median (HIF-1α; [12]): 45.3%
- Proportion of HIF-1α Positive Cells, CFB (change from baseline), Mean (HIF-1α; Pooled (60 mg and 120 mg)): 35.2%
- Proportion of HIF-1α Positive Cells, CFB (change from baseline), Median (HIF-1α; Pooled (60 mg and 120 mg)): 29.0%
- Increase from baseline to Day 8 in proportion of HIF-1α positive cells [mean±SD] (HIF-1α; combined group (Pooled; 120 mg and 60 mg cohorts)): 35.2+28.8
- Effects on circulating EPO and VEGF levels (EPO and VEGF): no Compound 1-related effects
